# BigSolDB 2.1
smiles,measurement,setting,value
Cc1[nH]nc2cc([N+](=O)[O-])ccc12,solubility (mole fraction),"in ethanol, 278.15 K",0.00471
same,solubility (mole fraction),"in ethanol, 283.15 K",0.00539
same,solubility (mole fraction),"in ethanol, 288.15 K",0.00619
same,solubility (mole fraction),"in ethanol, 293.15 K",0.0073
same,solubility (mole fraction),"in ethanol, 298.15 K",0.00866
same,solubility (mole fraction),"in ethanol, 303.15 K",0.0102
same,solubility (mole fraction),"in ethanol, 308.15 K",0.0118
same,solubility (mole fraction),"in ethanol, 313.15 K",0.0137
same,solubility (mole fraction),"in ethanol, 318.15 K",0.016
same,solubility (mole fraction),"in ethanol, 323.15 K",0.019
same,solubility (mole fraction),"in ethanol, 328.15 K",0.022
same,solubility (mole fraction),"in n-propanol, 278.15 K",0.0051
same,solubility (mole fraction),"in n-propanol, 283.15 K",0.00574
same,solubility (mole fraction),"in n-propanol, 288.15 K",0.00682
same,solubility (mole fraction),"in n-propanol, 293.15 K",0.00793
same,solubility (mole fraction),"in n-propanol, 298.15 K",0.00901
same,solubility (mole fraction),"in n-propanol, 303.15 K",0.0103
same,solubility (mole fraction),"in n-propanol, 308.15 K",0.0118
same,solubility (mole fraction),"in n-propanol, 313.15 K",0.0133
same,solubility (mole fraction),"in n-propanol, 318.15 K",0.0149
same,solubility (mole fraction),"in n-propanol, 323.15 K",0.017
same,solubility (mole fraction),"in n-propanol, 328.15 K",0.0194
same,solubility (mole fraction),"in water, 278.15 K",2.06e-05
same,solubility (mole fraction),"in water, 283.15 K",2.7e-05
same,solubility (mole fraction),"in water, 288.15 K",3.52e-05
same,solubility (mole fraction),"in water, 293.15 K",4.67e-05
same,solubility (mole fraction),"in water, 298.15 K",6.15e-05
same,solubility (mole fraction),"in water, 303.15 K",7.91e-05
same,solubility (mole fraction),"in water, 308.15 K",9.98e-05
same,solubility (mole fraction),"in water, 313.15 K",0.000123
same,solubility (mole fraction),"in water, 318.15 K",0.000151
same,solubility (mole fraction),"in water, 323.15 K",0.000182
same,solubility (mole fraction),"in water, 328.15 K",0.000222
